Assay results taken from patent publication US7915267B2, “Heterocyclic amide compound and use thereof” (Takeda Pharmaceutical Company Limited, priority 2005, dated 2011).

Each compound was assayed against T1, MMP-13 (Homo sapiens, UniProt P45452) (assay: MMP-13 inhibitory activity (fluorogenic substrate Cy3-PLGLK(Cy5Q)AR-NH2 enzyme assay)). Conditions: compound 1 μM; 37° C., 40 min; APMA-activated MMP-13 precursor; read-out: MMP-13 inhibitory rate (%) at 1 μM.
T1 construct: purchased GenzymeTechne
Type: biochemical
Method: To 10 μg of MMP-13 precursor (GenzymeTechne) was added 1 ml of assay buffer (50 mM Tris-HCl (pH 7.5), 10 mM CaCl2, 150 mM NaCl, 0.05% Brij-35), and 4-aminophenylmercuric acid (Sigma) was added to the final concentration of 1 mM. The MMP-13 precursor was activated by incubating at 37° C. for 2 hr.
In a 96 well black plate (Corning), to 6.3 ng/ml of MMP-13 solution (49 μl) diluted with assay buffer was added the test compound (1 μl) diluted with dimethyl sulfoxide (DMSO) and 620 nM Cy3-PLGLK(Cy5Q)AR-NH2 (50 μl, synthesized by Amersham Biosciences) in assay buffer was added to start the enzyme reaction. After incubation at 37° C. for 40 min, 500 mM EDTA solution (6 μl) was added to stop the reaction. For measurement, Farcyte (Amersham Biosciences) was used to measure at excitation wavelength 535 nm and measurement wavelength 595 nm.
T: value of well with addition of DMSO instead of test compound
C: value of well with addition of DMSO instead of test compound and addition of EDTA solution before addition of substrate solution
X: value of well with addition of test compound

Structure (SMILES) | inhibition at 1 µM [%]
N#Cc1ccc2nc(C(=O)NCc3cccc(OCCSc4nc[nH]n4)c3)[nH]c(=O)c2c1 [Example 2, 6-cyano-4-oxo-N-[(3-{[2-(1H-1,2,4-triazol-3-ylthio)ethyl]oxy}phenyl)methyl]-3,4-dihydroquinazoline-2-carboxamide] | 97
O=C(NCc1cccc(OCCSc2nc[nH]n2)c1)c1nc2ccc(F)cc2c(=O)[nH]1 [Example 3, 6-fluoro-4-oxo-N-[(3-{[2-(1H-1,2,4-triazol-3-ylthio)ethyl]oxy}phenyl)methyl]-3,4-dihydroquinazoline-2-carboxamide] | 98
COc1ccc2nc(C(=O)NCc3cccc(OCCSc4nc[nH]n4)c3)[nH]c(=O)c2c1 [Example 4, 6-(methyloxy)-4-oxo-N-[(3-{[2-(1H-1,2,4-triazol-3-ylthio)ethyl]oxy}phenyl)methyl]-3,4-dihydroquinazoline-2-carboxamide] | 99
O=C(NCc1cccc(OCCSc2nc[nH]n2)c1)c1nc2ccc(Cl)cc2c(=O)[nH]1 [Example 5, 6-chloro-4-oxo-N-[(3-{[2-(1H-1,2,4-triazol-3-ylthio)ethyl]oxy}phenyl)methyl]-3,4-dihydroquinazoline-2-carboxamide] | 97
Cc1ccc2nc(C(=O)NCc3cccc(OCCSc4nc[nH]n4)c3)[nH]c(=O)c2c1 [Example 6, 6-methyl-4-oxo-N-[(3-{[2-(1H-1,2,4-triazol-3-ylthio)ethyl]oxy}phenyl)methyl]-3,4-dihydroquinazoline-2-carboxamide] | 97
Nc1ccc2nc(C(=O)NCc3cccc(OCCSc4nc[nH]n4)c3)[nH]c(=O)c2c1 [Example 7, 6-amino-4-oxo-N-[(3-{[2-(1H-1,2,4-triazol-3-ylthio)ethyl]oxy}phenyl)methyl]-3,4-dihydroquinazoline-2-carboxamide] | 97
O=C(NCc1cccc(OCCSc2nc[nH]n2)c1)c1nc2ccc(F)c(F)c2c(=O)[nH]1 [Example 8, 5,6-difluoro-4-oxo-N-[(3-{[2-(1H-1,2,4-triazol-3-ylthio)ethyl]oxy}phenyl)methyl]-3,4-dihydroquinazoline-2-carboxamide] | 99
Cc1cccc2nc(C(=O)NCc3cccc(OCCSc4nc[nH]n4)c3)[nH]c(=O)c12 [Example 9, 5-methyl-4-oxo-N-[(3-{[2-(1H-1,2,4-triazol-3-ylthio)ethyl]oxy}phenyl)methyl]-3,4-dihydroquinazoline-2-carboxamide] | 98
O=C(NCc1cccc(OCCSc2nc[nH]n2)c1)c1nc2cccc(F)c2c(=O)[nH]1 [Example 10, 5-fluoro-4-oxo-N-[(3-{[2-(1H-1,2,4-triazol-3-ylthio)ethyl]oxy}phenyl)methyl]-3,4-dihydroquinazoline-2-carboxamide] | 98
O=C(NCc1cccc(OCCSc2nc[nH]n2)c1)c1nc2sccc2c(=O)[nH]1 [Example 11, 4-oxo-N-[(3-{[2-(1H-1,2,4-triazol-3-ylthio)ethyl]oxy}phenyl)methyl]-3,4-dihydrothieno[2,3-d]pyrimidine-2-carboxamide] | 97
Cc1cc2c(=O)[nH]c(C(=O)NCc3cccc(OCCSc4nc[nH]n4)c3)nc2s1 [Example 13, 6-methyl-4-oxo-N-[(3-{[2-(1H-1,2,4-triazol-3-ylthio)ethyl]oxy}phenyl)methyl]-3,4-dihydrothieno[2,3-d]pyrimidine-2-carboxamide] | 97
Cc1sc2nc(C(=O)NCc3cccc(OCCSc4nc[nH]n4)c3)[nH]c(=O)c2c1C [Example 14, 5,6-dimethyl-4-oxo-N-[(3-{[2-(1H-1,2,4-triazol-3-ylthio)ethyl]oxy}phenyl)methyl]-3,4-dihydrothieno[2,3-d]pyrimidine-2-carboxamide] | 98
N#Cc1ccc2nc(C(=O)NCc3cccc(OCCCSc4nc[nH]n4)c3)[nH]c(=O)c2c1 [Example 15, 6-cyano-4-oxo-N-[(3-{[3-(1H-1,2,4-triazol-3-ylthio)propyl]oxy}phenyl)methyl]-3,4-dihydroquinazoline-2-carboxamide] | 98
N#Cc1ccc2nc(C(=O)NCc3cccc(OCCCCSc4nc[nH]n4)c3)[nH]c(=O)c2c1 [Example 17, 6-cyano-4-oxo-N-[(3-{[4-(1H-1,2,4-triazol-3-ylthio)butyl]oxy}phenyl)methyl]-3,4-dihydroquinazoline-2-carboxamide] | 97
O=C(NCc1ccnc(OCCSc2nc[nH]n2)c1)c1nc2ccccc2c(=O)[nH]1 [Example 19, 4-oxo-N-[(2-{[2-(1H-1,2,4-triazol-3-ylthio)ethyl]oxy}pyridin-4-yl)methyl]-3,4-dihydroquinazoline-2-carboxamide] | 93
N#Cc1ccc2nc(C(=O)NCc3ccnc(OCCSc4nc[nH]n4)c3)[nH]c(=O)c2c1 [Example 20, 6-cyano-4-oxo-N-[(2-{[2-(1H-1,2,4-triazol-3-ylthio)ethyl]oxy}pyridin-4-yl)methyl]-3,4-dihydroquinazoline-2-carboxamide] | 89
Cc1csc2nc(C(=O)NCc3ccnc(OCCSc4nc[nH]n4)c3)[nH]c(=O)c12 [Example 21, 5-methyl-4-oxo-N-[(2-{[2-(1H-1,2,4-triazol-3-ylthio)ethyl]oxy}pyridin-4-yl)methyl]-3,4-dihydrothieno[2,3-d]pyrimidine-2-carboxamide] | 100
O=C(NCc1ccnc(OCCCc2nc[nH]n2)c1)c1nc2ccccc2c(=O)[nH]1 [Example 22, 4-oxo-N-[(2-{[3-(1H-1,2,4-triazol-3-yl)propyl]oxy}pyridin-4-yl)methyl]-3,4-dihydroquinazoline-2-carboxamide] | 95
N#Cc1ccc2nc(C(=O)NCc3ccnc(OCCCc4nc[nH]n4)c3)[nH]c(=O)c2c1 [Example 23, 6-cyano-4-oxo-N-[(2-{[3-(1H-1,2,4-triazol-3-yl)propyl]oxy}pyridin-4-yl)methyl]-3,4-dihydroquinazoline-2-carboxamide] | 96
Cc1csc2nc(C(=O)NCc3ccnc(OCCCc4nc[nH]n4)c3)[nH]c(=O)c12 [Example 24, 5-methyl-4-oxo-N-[(2-{[3-(1H-1,2,4-triazol-3-yl)propyl]oxy}pyridin-4-yl)methyl]-3,4-dihydrothieno[2,3-d]pyrimidine-2-carboxamide] | 93
N#Cc1ccc2nc(C(=O)NCc3cccc(OCCOc4nc[nH]n4)c3)[nH]c(=O)c2c1 [Example 25, 6-cyano-4-oxo-N-[(3-{[2-(1H-1,2,4-triazol-3-yloxy)ethyl]oxy}phenyl)methyl]-3,4-dihydroquinazoline-2-carboxamide] | 97
O=C(NCc1cccc(OCCOc2nc[nH]n2)c1)c1nc2scc(-c3ccco3)c2c(=O)[nH]1 [Example 28, 5-furan-2-yl-4-oxo-N-[(3-{[2-(1H-1,2,4-triazol-3-yloxy)ethyl]oxy}phenyl)methyl]-3,4-dihydrothieno[2,3-d]pyrimidine-2-carboxamide] | 96
N#CCc1csc2nc(C(=O)NCc3cccc(OCCOc4nc[nH]n4)c3)[nH]c(=O)c12 [Example 29, 5-(cyanomethyl)-4-oxo-N-[(3-{[2-(1H-1,2,4-triazol-3-yloxy)ethyl]oxy}phenyl)methyl]-3,4-dihydrothieno[2,3-d]pyrimidine-2-carboxamide] | 98
